The target of this test is T1, human LPA1 (Homo sapiens, UniProt Q92633).
T1 construct: expressed in transfected cells; host or cells: Chinese hamster ovary (CHO) cells
The test is described as follows: LPA1 functional antagonist assay (calcium flux). It is filed as cell-based. As to conditions: CHO cells overexpressing human LPA1; inhibition of calcium flux induced by 10 nM LPA; read-out: hLPA1 IC50. The protocol:
The effectiveness of compounds of the present invention as LPA1 inhibitors can be determined in an LPA1 functional antagonist assay as follows: • Chinese hamster ovary cells overexpressing human LPA1 were plated overnight (15,000 cells/well) in poly-D-lysine coated 384-well microplates (Greiner bio-one, Cat #781946) in DMEM/F12 medium (Gibco, Cat #11039). Following overnight culture, cells were loaded with calcium indicator dye (AAT Bioquest Inc, Cat #34601) for 30 minutes at 37° C. The cells were then equilibrated to room temperature for 30 minutes before the assay. Test compounds solubilized in DMSO were transferred to 384 well non-binding surface plates (Corning, Cat #3575) using the Labcyte Echo acoustic dispense and diluted with assay buffer [[…] with calcium/magnesium (Gibco Cat #14025-092), 20 mM HEPES (Gibco Cat #15630-080) and 0.1% fatty acid free BSA (Sigma Cat #A9205)] to a final concentration of 0.5% DMSO. Diluted compounds were added to the cells by FDSS6000 (Hamamatsu) at final concentrations ranging from 0.08 nM to 5 μM. and were then incubated for 20 min at room temperature at which time LPA (Avanti Polar Lipids Cat #857130C) was added at final concentrations of 10 nM to stimulate the cells. The compound IC50 value was defined as the concentration of test compound which inhibited 50% of the calcium flux induced by LPA alone. IC50 values were determined by fitting data to a 4-parameter logistic equation (GraphPad Prism, San Diego CA). b. In Vivo Assays LPA Challenge with Plasma Histamine Evaluation.

Counter-ions that a name gives are not always drawn.

T1 sequence (Q92633 whole entry): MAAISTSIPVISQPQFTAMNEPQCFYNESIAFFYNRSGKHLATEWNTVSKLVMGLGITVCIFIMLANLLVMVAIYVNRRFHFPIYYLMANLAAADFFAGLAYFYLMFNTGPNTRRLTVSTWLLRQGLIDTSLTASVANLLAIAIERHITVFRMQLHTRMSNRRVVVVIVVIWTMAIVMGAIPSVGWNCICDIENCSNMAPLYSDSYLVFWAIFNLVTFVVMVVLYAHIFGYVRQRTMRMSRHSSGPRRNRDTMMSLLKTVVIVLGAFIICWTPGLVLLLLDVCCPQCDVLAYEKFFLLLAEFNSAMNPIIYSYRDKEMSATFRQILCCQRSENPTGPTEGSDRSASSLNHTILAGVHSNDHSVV

Take `CCCCN(C)C(=O)OCc1c(-c2ccc(O[C@@H]3COC[C@@H](C(=O)O)C3)c(C)n2)nnn1C` [Example 18]: the IC50 was 174 nM.

As to `Cc1nc(-c2nnn(C)c2CNc2noc(CCC3CCC3)n2)ccc1O[C@@H]1CCO[C@@H](C(=O)O)C1` (racemic) [Example 33, (±)-trans-4-((6-(5-(((5-(2-cyclobutylethyl)-1,2,4-oxadiazol-3-yl)amino)methyl)-1-methyl-1H-1,2,3-triazol-4-yl)-2-methylpyridin-3-yl)oxy)tetrahydro-2H-pyran-2-carboxylic Acid], the concentration for half-maximal inhibition (IC50) was 263 nM.

In the case of `Cc1nc(-c2nnn(C)c2COC(=O)N(C)CC2CCC2)ccc1OC1CC[C@H]2C(C(=O)O)[C@@H]12` (mixture of isomers) [Example 41, (±)-(1S,2R,5R)-2-((6-(5-((((cyclobutylmethyl)(methyl)carbamoyl)oxy)methyl)-1-methyl-1H-1,2,3-triazol-4-yl)-2-methylpyridin-3-yl)oxy)bicyclo[3.1.0]hexane-6-carboxylic Acid], the IC50 was 19 nM.

As to `Cc1nc(-c2nnn(C)c2COC(=O)N(C)CC2CCCC2)ccc1O[C@@H]1COC[C@@H](C(=O)O)C1` [Example 22A], the IC50 was determined as 160 nM.

As to `CCCN(C)C(=O)OCc1c(-c2ccc(O[C@@H]3CC[C@H]4C(C(=O)O)[C@@H]34)cn2)nnn1C` (mixture of isomers) [Example 69], the IC50 was 453 nM.

Consider `Cc1nc(-c2nnn(C)c2COC(=O)N(C)CC2CC2)ccc1O[C@@H]1CC[C@H]2C(C(=O)O)[C@@H]12` (stereo partly shown) [Example 59], for which the IC50 is 313 nM.

For the molecule `CCCN(C)C(=O)OCc1c(-c2ccc(O[C@@H]3CC[C@H]4C(C(=O)O)[C@@H]34)c(C)n2)nnn1C` (mixture of isomers) [Example 51, (±)-(1S,2R,5R,6R)-2-((2-methyl-6-(1-methyl-5-(((methyl(propyl)carbamoyl)oxy)methyl)-1H-1,2,3-triazol-4-yl)pyridin-3-yl)oxy)bicyclo[3.1.0]hexane-6-carboxylic Acid], the IC50 was found to be 724 nM.

Regarding `Cc1nc(-c2nnn(C)c2COC(=O)N(C)CC2CCC2)ccc1O[C@H]1CCO[C@H](C(=O)O)C1` [Example 40], the half-maximal inhibitory concentration (IC50) amounted to 158 nM.

As to `Cc1nc(-c2nnn(C)c2COC(=O)N(C)C2CCCC2)ccc1O[C@H]1CCO[C@@H](C(=O)O)C1` [Example 36], the IC50 came to 713 nM.

Regarding `Cc1nc(-c2nnn(C)c2CNC(=O)OCC2CCC2)ccc1O[C@@H]1CCC2C(C(=O)O)C21` (mixture of isomers) [Example 47, (±)-(2R)-2-((6-(5-((((cyclobutylmethoxy)carbonyl)amino)methyl)-1-methyl-1H-1,2,3-triazol-4-yl)-2-methylpyridin-3-yl)oxy)bicyclo[3.1.0]hexane-6-carboxylic Acid], the IC50 was 191 nM.

Turning to `CCCN(C)C(=O)OCc1c(-c2ccc(O[C@@H]3COC[C@@H](C(=O)O)C3)c(C)n2)nnn1C` (racemic) [Example 17, (±)-trans-5-((2-methyl-6-(1-methyl-5-(((methyl(propyl)carbamoyl)oxy)methyl)-1H-1,2,3-triazol-4-yl)pyridin-3-yl)oxy)tetrahydro-2H-pyran-3-carboxylic Acid, TFA Salt], the half-inhibitory concentration (IC50) came to 931 nM.

On to `Cc1nc(-c2nnn(C)c2Cn2nnc(CC3CCCC3)n2)ccc1O[C@@H]1COC[C@@H](C(=O)O)C1` (racemic) [Example 24, (±)-trans-5-((6-(5-((5-(cyclopentylmethyl)-2H-tetrazol-2-yl)methyl)-1-methyl-1H-1,2,3-triazol-4-yl)-2-methylpyridin-3-yl)oxy)tetrahydro-2H-pyran-3-Carboxylic Acid, TFA Salt], for which the IC50 came out at 420 nM.

With `Cc1nc(-c2nnn(C)c2NC(=O)OCC2CC2)ccc1O[C@@H]1CC[C@H]2C(C(=O)O)[C@@H]12` (mixture of isomers) [Example 52, (±)-(1S,2R,5R,6R)-2-((6-(5-(((cyclopropylmethoxy)carbonyl)amino)-1-methyl-1H-1,2,3-triazol-4-yl)-2-methylpyridin-3-yl)oxy)bicyclo[3.1.0]hexane-6-carboxylic Acid], the IC50 stood at 1720 nM.

As to `Cc1nc(-c2nnn(C)c2Cn2nncc2CC2CCCC2)ccc1O[C@H]1COC[C@H](C(=O)O)C1` [Example 25], the half-inhibitory concentration (IC50) was found to be 931 nM.

On to `CCCCN(C)C(=O)OCc1c(-c2ccc(O[C@H]3C[C@H](C(=O)O)[C@@H]4C[C@@H]43)c(C)n2)nnn1C` [Example 14], for which the IC50 amounted to 143 nM.

Regarding `CC(C)CN(C)C(=O)OCc1c(-c2ccc(O[C@@H]3CC[C@H]4C(C(=O)O)[C@@H]34)cn2)nnn1C` (mixture of isomers) [Example 68, (±)-(1S,2R,5R,6R)-2-((6-(5-(((isobutyl(methyl)carbamoyl)oxy)methyl)-1-methyl-1H-1,2,3-triazol-4-yl)pyridin-3-yl)oxy)bicyclo[3.1.0]hexane-6-carboxylic Acid], the half-inhibitory concentration (IC50) amounted to 239 nM.

Take `Cc1nc(-c2nnn(C)c2COC(=O)N(C)CC2CCC2)ccc1O[C@@H]1C[C@@H]2C[C@@H]2[C@H](C(=O)O)C1` (single isomer, unassigned) [Example 8]: the IC50 is 26 nM.

Turning to `Cc1nc(-c2nnn(C)c2COC(=O)N(C)CC2CCC2)ccc1O[C@H]1C[C@@H]2C[C@@H]2[C@@H](C(=O)O)C1` (single isomer, unassigned) [Example 4], the half-inhibitory concentration (IC50) was 907 nM.

For the molecule `Cc1nc(-c2nnn(C)c2COC(=O)N(C)CC2CCC2)ccc1O[C@@H]1CC[C@H]2C(C(=O)O)[C@@H]12` (single isomer, unassigned) [Example 42], the IC50 turned out to be 619 nM.

Regarding `Cc1nc(-c2nnn(C)c2CNc2nccc(-c3ccccn3)n2)ccc1OC1CCC2C(C(=O)O)C12` (mixture of isomers) [Example 48, (±)-(2R)-2-((2-Methyl-6-(1-methyl-54(4-(pyridin-2-yl)pyrimidin-2-yl)amino)methyl)-1H-1,2,3-triazol-4-yl)pyridin-3-yl)oxy)bicyclo[3.1.0]hexane-6-carboxylic Acid], the 50% inhibitory concentration (IC50) is 159 nM.

For the molecule `Cc1nc(-c2nnn(C)c2COC(=O)N(C)CC2CCC2)ccc1O[C@H]1C[C@H]2C[C@H]2[C@H](C(=O)O)C1` (racemic) [Example 2, (±)-(1R,2R,4S,6R)-4-((6-(5-((((cyclobutylmethyl)(methyl)carbamoyl)oxy)methyl)-1-methyl-1H-1,2,3-triazol-4-yl)-2-methylpyridin-3-yl)oxy) bicyclo[4.1.0]heptane-2-carboxylic Acid], the IC50 stood at 26 nM.

For the molecule `Cc1nc(-c2nnn(C)c2Cn2cc(CC3CCCC3)nn2)ccc1O[C@H]1COC[C@H](C(=O)O)C1` [Example 26], the IC50 was determined as 772 nM.

`CCCN(C)C(=O)OCc1c(-c2ccc(O[C@H]3CCO[C@H](C(=O)O)C3)c(C)n2)nnn1C` [Example 38]: the 50% inhibitory concentration (IC50) stood at 2010 nM.

In the case of `Cc1nc(-c2nnn(C)c2COC(=O)N(C)Cc2ccccc2)ccc1O[C@@H]1COC[C@@H](C(=O)O)C1` [Example 22B], the half-inhibitory concentration (IC50) was 178 nM.

In the case of `Cc1nc(-c2nnn(C)c2COC(=O)N(C)CC2CCC2)ccc1O[C@H]1CCC[C@]2(C(=O)O)C[C@H]12` (single isomer, unassigned) [Example 12], the half-maximal inhibitory concentration (IC50) is 278 nM.

For the molecule `CCCOc1ccnc(NCc2c(-c3ccc(O[C@@H]4CC[C@H]5C(C(=O)O)[C@@H]45)c(C)n3)nnn2C)n1` (stereo partly shown) [Example 57], the IC50 amounted to 35 nM.

As to `Cc1nc(-c2nnn(C)c2COC(=O)N(C)CC(C)C)ccc1O[C@@H]1CC[C@H]2C(C(=O)O)[C@@H]12` (stereo partly shown) [Example 60], the half-inhibitory concentration (IC50) worked out at 313 nM.

`Cc1nc(-c2nnn(C)c2COC(=O)N(C)C2CCCC2)ccc1O[C@@H]1CC[C@H]2C(C(=O)O)[C@@H]12` (stereo partly shown) [Example 62]: the IC50 worked out at 145 nM.

Source of the values: patent US12435057B2, “Triazole carboxylic acids as LPA antagonists” (BRISTOL-MYERS SQUIBB COMPANY, priority 2019, dated 2025).
